The values that follow come from ChEMBL document CHEMBL1145498, “A systematic interaction map of validated kinase inhibitors with Ser/Thr kinases” (Proc Natl Acad Sci U S A, 2007).

Each structure is given as a SMILES string.

The target in assay [1] is Casein kinase I isoform gamma-3 (Homo sapiens) (UniProt Q9Y6M4).
Assay [2] concerns the target T1, 3-phosphoinositide-dependent protein kinase 1 (Homo sapiens) (UniProt O15530).
T1 sequence (whole entry): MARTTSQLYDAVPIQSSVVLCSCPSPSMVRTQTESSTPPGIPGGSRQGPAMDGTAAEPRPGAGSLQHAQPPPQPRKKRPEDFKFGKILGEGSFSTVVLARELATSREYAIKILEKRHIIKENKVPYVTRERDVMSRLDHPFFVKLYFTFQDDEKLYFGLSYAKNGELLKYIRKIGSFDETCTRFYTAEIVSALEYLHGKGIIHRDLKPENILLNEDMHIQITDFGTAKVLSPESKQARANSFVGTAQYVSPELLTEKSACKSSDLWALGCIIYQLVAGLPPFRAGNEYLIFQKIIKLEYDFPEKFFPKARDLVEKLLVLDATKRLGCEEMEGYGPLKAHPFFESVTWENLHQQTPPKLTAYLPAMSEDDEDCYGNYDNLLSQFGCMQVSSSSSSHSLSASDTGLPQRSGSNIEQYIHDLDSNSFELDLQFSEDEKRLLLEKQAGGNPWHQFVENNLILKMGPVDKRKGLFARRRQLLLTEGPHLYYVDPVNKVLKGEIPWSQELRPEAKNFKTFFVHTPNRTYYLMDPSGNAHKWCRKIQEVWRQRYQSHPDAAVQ

Assay [3] has as its target Serine/threonine-protein kinase Nek6 (Homo sapiens) (UniProt Q9HC98).
Assay [4] has as its target Casein kinase I isoform gamma-2 (Homo sapiens) (UniProt P78368).
The target of assay [5] is Ribosomal protein S6 kinase alpha-3 (Homo sapiens) (UniProt P51812).
Chain of Ribosomal protein S6 kinase alpha-3 (Homo sapiens) (P51812 whole entry): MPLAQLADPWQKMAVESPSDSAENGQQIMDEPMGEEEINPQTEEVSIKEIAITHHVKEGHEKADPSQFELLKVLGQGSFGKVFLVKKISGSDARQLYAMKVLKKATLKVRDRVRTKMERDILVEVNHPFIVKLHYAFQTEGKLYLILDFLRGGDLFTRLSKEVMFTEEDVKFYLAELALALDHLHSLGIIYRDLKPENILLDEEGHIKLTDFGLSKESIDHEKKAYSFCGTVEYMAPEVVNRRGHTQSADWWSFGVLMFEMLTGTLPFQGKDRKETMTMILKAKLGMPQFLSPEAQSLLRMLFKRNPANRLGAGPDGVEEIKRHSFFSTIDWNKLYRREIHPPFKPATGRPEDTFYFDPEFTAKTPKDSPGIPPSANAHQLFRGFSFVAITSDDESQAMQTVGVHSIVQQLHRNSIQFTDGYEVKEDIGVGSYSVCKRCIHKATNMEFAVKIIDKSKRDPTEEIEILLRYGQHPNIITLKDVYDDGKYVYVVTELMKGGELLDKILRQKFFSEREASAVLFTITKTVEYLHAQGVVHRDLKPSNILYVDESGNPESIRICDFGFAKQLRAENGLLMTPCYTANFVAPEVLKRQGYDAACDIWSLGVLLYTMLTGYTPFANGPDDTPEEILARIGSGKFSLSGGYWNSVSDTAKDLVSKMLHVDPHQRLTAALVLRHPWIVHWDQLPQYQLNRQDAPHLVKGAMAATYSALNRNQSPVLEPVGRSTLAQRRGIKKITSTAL
Assay [6] has as its target T2, Mitogen-activated protein kinase kinase kinase 5 (Homo sapiens) (UniProt Q99683).
T2 sequence (whole entry): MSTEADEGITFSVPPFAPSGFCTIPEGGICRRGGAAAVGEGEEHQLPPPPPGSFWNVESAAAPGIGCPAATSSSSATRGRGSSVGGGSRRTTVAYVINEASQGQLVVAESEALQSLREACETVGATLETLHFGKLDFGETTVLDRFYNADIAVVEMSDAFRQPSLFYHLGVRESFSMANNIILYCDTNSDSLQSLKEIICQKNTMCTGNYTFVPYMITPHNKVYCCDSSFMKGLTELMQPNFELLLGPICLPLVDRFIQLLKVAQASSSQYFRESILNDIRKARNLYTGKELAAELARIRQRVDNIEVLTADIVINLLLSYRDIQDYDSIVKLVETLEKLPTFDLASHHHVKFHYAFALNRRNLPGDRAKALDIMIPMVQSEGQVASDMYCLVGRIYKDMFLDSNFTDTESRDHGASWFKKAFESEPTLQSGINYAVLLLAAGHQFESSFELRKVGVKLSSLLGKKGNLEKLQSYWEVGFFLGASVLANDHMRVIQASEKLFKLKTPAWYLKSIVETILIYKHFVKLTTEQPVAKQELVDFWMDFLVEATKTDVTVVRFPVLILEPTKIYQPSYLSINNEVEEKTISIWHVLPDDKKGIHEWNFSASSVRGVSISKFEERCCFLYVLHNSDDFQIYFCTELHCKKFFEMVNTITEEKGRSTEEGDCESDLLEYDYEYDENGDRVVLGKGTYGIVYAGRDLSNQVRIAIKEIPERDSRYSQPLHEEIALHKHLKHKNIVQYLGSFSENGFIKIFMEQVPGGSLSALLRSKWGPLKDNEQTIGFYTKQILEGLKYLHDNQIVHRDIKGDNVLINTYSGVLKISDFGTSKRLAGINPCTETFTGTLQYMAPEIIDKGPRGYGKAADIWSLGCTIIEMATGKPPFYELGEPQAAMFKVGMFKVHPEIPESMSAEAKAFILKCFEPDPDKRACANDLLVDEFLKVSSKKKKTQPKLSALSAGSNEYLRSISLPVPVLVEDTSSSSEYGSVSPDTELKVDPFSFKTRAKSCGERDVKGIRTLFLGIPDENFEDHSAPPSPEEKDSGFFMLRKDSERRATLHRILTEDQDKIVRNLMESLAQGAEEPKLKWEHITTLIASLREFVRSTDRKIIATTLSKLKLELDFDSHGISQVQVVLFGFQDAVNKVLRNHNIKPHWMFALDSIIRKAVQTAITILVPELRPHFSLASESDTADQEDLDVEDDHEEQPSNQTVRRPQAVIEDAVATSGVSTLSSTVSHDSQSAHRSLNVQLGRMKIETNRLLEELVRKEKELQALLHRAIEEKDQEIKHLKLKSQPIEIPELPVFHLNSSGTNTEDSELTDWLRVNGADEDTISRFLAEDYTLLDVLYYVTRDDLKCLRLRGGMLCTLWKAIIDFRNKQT

Assay [7] concerns the target Serine/threonine-protein kinase Chk2 (Homo sapiens, UniProt O96017).
Assay [8] has as its target T3, Serine/threonine-protein kinase 4 (Homo sapiens) (UniProt Q13043).
T3 sequence (whole entry): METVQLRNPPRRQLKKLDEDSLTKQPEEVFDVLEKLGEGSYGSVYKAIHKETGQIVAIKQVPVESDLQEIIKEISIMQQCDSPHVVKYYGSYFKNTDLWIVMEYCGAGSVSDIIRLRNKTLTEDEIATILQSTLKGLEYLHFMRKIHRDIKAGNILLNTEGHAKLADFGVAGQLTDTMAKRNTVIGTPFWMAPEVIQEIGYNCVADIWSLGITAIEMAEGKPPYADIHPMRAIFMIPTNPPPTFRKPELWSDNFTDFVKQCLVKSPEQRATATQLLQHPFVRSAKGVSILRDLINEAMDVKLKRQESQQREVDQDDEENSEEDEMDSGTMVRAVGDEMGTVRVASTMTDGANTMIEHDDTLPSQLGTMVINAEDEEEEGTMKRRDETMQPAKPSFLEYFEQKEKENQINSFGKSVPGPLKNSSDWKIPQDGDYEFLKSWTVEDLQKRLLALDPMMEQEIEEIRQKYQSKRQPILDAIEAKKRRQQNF

Assay [9] addresses Dual specificity mitogen-activated protein kinase kinase 2 (Homo sapiens, UniProt P36507).

The term ΔTm denotes the shift of the melting midpoint relative to a reference.

Chain of Dual specificity mitogen-activated protein kinase kinase 2 (P36507 whole entry): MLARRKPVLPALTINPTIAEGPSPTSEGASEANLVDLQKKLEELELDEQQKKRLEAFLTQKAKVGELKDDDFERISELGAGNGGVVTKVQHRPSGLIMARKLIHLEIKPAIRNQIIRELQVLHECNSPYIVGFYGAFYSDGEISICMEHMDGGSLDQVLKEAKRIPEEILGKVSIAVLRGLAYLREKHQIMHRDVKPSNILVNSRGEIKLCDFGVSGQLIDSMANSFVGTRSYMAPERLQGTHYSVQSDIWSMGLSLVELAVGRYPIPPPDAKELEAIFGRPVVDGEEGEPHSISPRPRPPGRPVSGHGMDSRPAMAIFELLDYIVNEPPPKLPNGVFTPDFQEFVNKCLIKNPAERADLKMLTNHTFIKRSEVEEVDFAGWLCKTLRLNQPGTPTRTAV
Chain of Casein kinase I isoform gamma-2 (Homo sapiens) (P78368 whole entry, looked up, canonical isoform): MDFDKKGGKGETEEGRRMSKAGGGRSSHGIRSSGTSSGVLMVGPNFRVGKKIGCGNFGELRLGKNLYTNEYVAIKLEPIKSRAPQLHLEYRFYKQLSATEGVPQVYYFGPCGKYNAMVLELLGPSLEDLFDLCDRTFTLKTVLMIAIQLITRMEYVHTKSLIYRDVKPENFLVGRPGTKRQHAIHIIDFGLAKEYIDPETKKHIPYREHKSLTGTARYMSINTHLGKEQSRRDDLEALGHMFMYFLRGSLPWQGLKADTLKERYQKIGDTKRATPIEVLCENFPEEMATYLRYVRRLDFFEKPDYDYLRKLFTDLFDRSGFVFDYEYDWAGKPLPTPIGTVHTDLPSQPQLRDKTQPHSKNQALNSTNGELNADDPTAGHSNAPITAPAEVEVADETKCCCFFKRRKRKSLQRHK
Chain of Serine/threonine-protein kinase Chk2 (O96017 whole entry): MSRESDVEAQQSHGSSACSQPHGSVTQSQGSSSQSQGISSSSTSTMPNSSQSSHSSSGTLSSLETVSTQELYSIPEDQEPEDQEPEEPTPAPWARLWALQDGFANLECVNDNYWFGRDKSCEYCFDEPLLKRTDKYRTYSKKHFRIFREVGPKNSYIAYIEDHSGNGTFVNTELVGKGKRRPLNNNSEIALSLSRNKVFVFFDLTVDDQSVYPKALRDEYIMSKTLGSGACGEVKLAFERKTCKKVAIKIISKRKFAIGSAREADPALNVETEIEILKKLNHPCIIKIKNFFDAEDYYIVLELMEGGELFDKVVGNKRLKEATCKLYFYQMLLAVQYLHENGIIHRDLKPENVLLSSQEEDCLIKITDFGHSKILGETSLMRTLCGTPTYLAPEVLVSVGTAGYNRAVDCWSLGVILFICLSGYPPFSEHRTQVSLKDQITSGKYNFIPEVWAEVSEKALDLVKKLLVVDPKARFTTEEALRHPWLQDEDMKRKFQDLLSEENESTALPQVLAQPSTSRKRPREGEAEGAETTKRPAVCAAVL
Chain of Serine/threonine-protein kinase Nek6 (Homo sapiens) (Q9HC98 whole entry, canonical isoform): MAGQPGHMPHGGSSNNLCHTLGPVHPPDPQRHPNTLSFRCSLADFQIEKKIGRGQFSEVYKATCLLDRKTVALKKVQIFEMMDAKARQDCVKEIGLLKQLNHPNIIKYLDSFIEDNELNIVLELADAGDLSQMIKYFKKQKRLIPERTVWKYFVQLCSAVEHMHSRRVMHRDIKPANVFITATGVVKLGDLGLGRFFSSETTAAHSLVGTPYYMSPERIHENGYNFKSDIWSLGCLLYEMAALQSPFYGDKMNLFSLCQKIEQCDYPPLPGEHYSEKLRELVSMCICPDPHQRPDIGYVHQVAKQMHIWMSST
Chain of Casein kinase I isoform gamma-3 (Homo sapiens) (Q9Y6M4 whole entry, looked up, canonical isoform): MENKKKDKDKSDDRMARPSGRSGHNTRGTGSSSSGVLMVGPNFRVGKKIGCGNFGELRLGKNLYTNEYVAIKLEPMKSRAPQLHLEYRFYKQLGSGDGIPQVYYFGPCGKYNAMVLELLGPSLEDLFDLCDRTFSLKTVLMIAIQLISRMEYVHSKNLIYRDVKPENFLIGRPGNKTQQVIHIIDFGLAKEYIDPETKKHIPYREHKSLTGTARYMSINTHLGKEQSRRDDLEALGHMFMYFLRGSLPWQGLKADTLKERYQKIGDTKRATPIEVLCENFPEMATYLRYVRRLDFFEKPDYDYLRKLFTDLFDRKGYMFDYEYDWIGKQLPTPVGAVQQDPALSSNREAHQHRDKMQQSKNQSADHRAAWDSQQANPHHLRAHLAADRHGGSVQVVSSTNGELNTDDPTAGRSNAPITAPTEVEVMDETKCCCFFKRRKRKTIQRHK

Turning to `COC(=O)[C@]1(O)C[C@@H]2O[C@@]1(C)n1c3ccccc3c3c4c(c5c6ccccc6n2c5c31)C(=O)NC4` (single isomer, unassigned), the ΔTm is 0.2 °C in assay [1]; -0.4 °C in [2]; 0 °C in assay [3]; 0.1 °C in assay [4]; 5.1 °C in [5]; 12.7 °C in assay [6]. The ΔTm in assay [7] was 6 °C; in [8], 9.5 °C.
Take `COc1cc2ncnc(Nc3cccc(O)c3)c2cc1OC`: the ΔTm in [1] is 0.8 °C; in [2] it was 0 °C; in assay [9], 0.1 °C; in [3] it was -0.1 °C; in assay [4], 1.5 °C; in assay [6], 1 °C. For the same molecule, the ΔTm in assay [7] stood at 1.8 °C; in assay [8], 1.6 °C.
On to `Cc1nc(Nc2ncc(C(=O)Nc3c(C)cccc3Cl)s2)cc(N2CCN(CCO)CC2)n1`, for which the ΔTm in assay [1] was 1.2 °C; in assay [2] it was 6.8 °C; in [9], -0.2 °C; in [3], 0.2 °C; in [4], 0.2 °C; in assay [6], 0.2 °C. For the same molecule, in assay [7], the ΔTm was found to be 1.2 °C.
Consider `N#C/C(=C1/Nc2ccccc2S1)c1ccnc(NCCc2cccnc2)n1`, for which the shift in melting temperature (ΔTm) in assay [1] is 3.4 °C; in [2], -0.1 °C; in assay [9] it was 3.8 °C; in assay [3], 1.7 °C; in assay [4], 2.5 °C; in assay [6], 3.6 °C. For the same molecule, the figures for the ΔTm in assay [7] and in assay [8] were 5.2 °C and 1.2 °C, respectively.
In the case of `CN[C@@H]1CC2O[C@@](C)([C@@H]1OC)n1c3ccccc3c3c4c(c5c6ccccc6n2c5c31)C(=O)NC4`, the ΔTm in [1] was 1.9 °C; in assay [2], -0.7 °C; in assay [3] it was -0.3 °C; in [6], 16.3 °C; in assay [8], 17.9 °C.
`COc1ccc(CNC(=O)Nc2ncc([N+](=O)[O-])s2)cc1`: the ΔTm in assay [1] was 0.6 °C; in assay [2], -0.3 °C; in assay [9], -0.5 °C; in [3], 0.4 °C; in assay [4] it was 0.1 °C; in assay [6], -0.4 °C. Also, the ΔTm in assay [7] and in [8] was 0.4 °C each time.
On to `CN1CCC(Nc2ncc3ncnc(Nc4ccc(F)c(Cl)c4)c3n2)CC1` [FALNIDAMOL], for which the ΔTm is 0 °C in assay [1]; 0.1 °C in assay [2]; 0.9 °C in assay [9]; 1.5 °C in assay [3]; -0.2 °C in [4]; 1.3 °C in assay [6]. Besides, the ΔTm in [7] was determined as 0.2 °C.
For the molecule `CCN(CC)CCNC(=O)c1c(C)[nH]c(/C=C2\C(=O)Nc3ccc(F)cc32)c1C`, the ΔTm is 2.9 °C in [2]; 2.2 °C in assay [9]; 3.4 °C in [3]; 8.6 °C in assay [5]; -0.6 °C in [6]; 12.9 °C in assay [7]. The ΔTm in assay [8] is 0.5 °C.
Regarding `C[C@@H](N)[C@H]1CC[C@H](C(=O)Nc2ccncc2)CC1`, the shift in melting temperature (ΔTm) in assay [1] was 0.4 °C; in assay [2] it was -0.3 °C; in assay [9], -0.4 °C; in [3], 0 °C; in assay [4] it was 0.6 °C; in [6], 1.1 °C. Moreover, the thermal shift (ΔTm) in [7] was -0.7 °C; in [8], 1.4 °C.
Regarding `CC(C)(C)c1nc2c3ccc(F)cc3c3c(=O)[nH]ccc3c2[nH]1`, the ΔTm in [1] is 0.8 °C; in assay [2], -1.3 °C; in assay [9] it was 3.6 °C; in [3], 0.3 °C; in assay [4], 0.7 °C; in assay [6], 4.9 °C. Also, the ΔTm in assay [7] was found to be 14.1 °C; in assay [8] it was 7.8 °C.
Regarding `Clc1ccc(Nc2nnc(Cc3ccncc3)c3ccccc23)cc1`, the ΔTm in [1] is -0.2 °C; in assay [2], 4 °C; in [9], 0.5 °C; in assay [3] it was 0.1 °C; in assay [4], 0 °C; in assay [6], -0.1 °C. The ΔTm in assay [7] is 0.2 °C.
